Assay results from publication PMC11408249, “Non-invasive in vivo imaging of changes in Collagen III turnover in myocardial fibrosis” (npj Imaging, 2024).

Molecular target: T1, COL3 (Mus musculus, UniProt P08121)
T1 construct: from tissue; host or cells: infarcted left-ventricular myocardium of female CD1 mice, in vivo
T1 sequence (P08121 155-1219 limits assumed): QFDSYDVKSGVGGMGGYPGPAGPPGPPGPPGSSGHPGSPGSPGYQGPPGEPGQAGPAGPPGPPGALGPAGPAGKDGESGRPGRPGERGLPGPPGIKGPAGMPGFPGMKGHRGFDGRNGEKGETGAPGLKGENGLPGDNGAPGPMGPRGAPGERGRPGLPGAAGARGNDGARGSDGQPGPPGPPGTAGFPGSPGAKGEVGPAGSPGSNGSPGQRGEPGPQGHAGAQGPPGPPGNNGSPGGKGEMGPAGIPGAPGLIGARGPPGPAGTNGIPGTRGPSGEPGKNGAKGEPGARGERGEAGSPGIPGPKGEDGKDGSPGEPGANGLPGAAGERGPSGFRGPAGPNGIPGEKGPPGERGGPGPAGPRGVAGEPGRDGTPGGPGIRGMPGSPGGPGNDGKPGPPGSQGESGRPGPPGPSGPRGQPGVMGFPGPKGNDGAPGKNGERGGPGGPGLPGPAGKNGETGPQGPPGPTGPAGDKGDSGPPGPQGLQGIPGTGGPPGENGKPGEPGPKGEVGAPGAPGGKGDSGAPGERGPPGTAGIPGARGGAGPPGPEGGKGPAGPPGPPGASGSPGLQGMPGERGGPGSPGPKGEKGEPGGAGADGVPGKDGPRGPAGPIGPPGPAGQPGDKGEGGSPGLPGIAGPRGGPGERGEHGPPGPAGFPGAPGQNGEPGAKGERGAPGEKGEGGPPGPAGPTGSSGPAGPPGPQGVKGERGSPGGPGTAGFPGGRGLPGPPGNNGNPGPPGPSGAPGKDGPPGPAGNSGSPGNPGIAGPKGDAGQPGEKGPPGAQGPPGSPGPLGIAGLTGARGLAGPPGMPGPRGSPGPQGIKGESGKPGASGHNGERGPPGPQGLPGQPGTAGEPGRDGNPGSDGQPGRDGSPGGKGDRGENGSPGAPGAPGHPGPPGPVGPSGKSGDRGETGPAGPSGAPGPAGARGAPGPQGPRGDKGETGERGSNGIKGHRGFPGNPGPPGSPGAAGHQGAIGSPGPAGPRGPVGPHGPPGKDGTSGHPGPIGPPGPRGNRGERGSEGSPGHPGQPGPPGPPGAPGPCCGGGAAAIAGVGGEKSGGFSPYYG
Assay: In vivo MRI of the aortic wall in a murine model of vascular remodelling
Settings: ApoE−/− mice after aortic injury and 12 weeks high-fat diet, i.v. 0.2 mmol/kg, LGE MRI at 3 T up to 2 h post-injection
Source text: Male ApoE^−/− mice were bred in-house and underwent surgery at 8–10 weeks of age (n = 6). Mice were anesthetised with 4% isoflurane mixed with 1% medical oxygen and anaesthesia was maintained at 2% during the surgery as previously reported. Briefly, mice underwent a laparotomy to expose the abdominal aorta, renal and iliac arteries. Two ligatures were inserted around the aorta (surgical silk, size 4–0, Aragó, Zaragoza, Spain), the first below the renal arteries and the second above the iliac bifurcation. A 30 G needle was introduced into the abdominal aorta at the level of the iliac bifurcation, via an aortic puncture. 1 mL of saline was infused into the aorta in three boluses. Finally, the needle was removed, and the puncture was repaired. The muscle and skin incisions were sutured (5-0 Vicryl, Ethicon Inc, Somerville, NJ), and the animals were allowed to recover. Mice were switched to a high-fat diet (HFD) containing 21% fat from lard and 0.15% (wt/wt) cholesterol (Special Diets Services, Witham, United Kingdom), on day 2 post-surgery for 12 weeks prior to the imaging experiments.
Anaesthesia was induced with 4% and maintained with 1–2% isoflurane during the MRI experiments. Mice (n = 3 per group) were placed supine on a single-loop surface coil (diameter = 47 mm) and the abdominal aorta was imaged up to 2 h post-injection of the monomeric (i.v. 0.2 mmol/kg, 0.2 mmol/kg Gd), the next day with the corresponding tetrameric collagen-binding probe (i.v 0.2 mmol/kg, 0.8 mmol/kg Gd) and the 3rd day using the scrambled probes (n = 2–3 per probe; i.v. 0.2 mmol/kg). This timeline ensures complete washout of one probe from the tissue before the administration of another probe. […]

Q: How did the “signal enhancement of the remodelled aortic wall (in words)” value turn out when “Ac-C-TEFPLRMRDWLKN [[Gd-DOTAMA]4-CBP2, tetrameric probe: tri-lysine scaffold bearing four Gd-DOTAMA units conjugated at the N-terminus of CBP2]” was run?
A: stronger enhancement at 60 min compared with corresponding monomeric probes

Q: How did the “signal enhancement of the remodelled aortic wall (in words)” value turn out when “Ac-C-RDKKVAEQS [[Gd-DOTAMA]4-SccCBP1, scrambled tetrameric Gd probe (Ac-C-…), negative control]” was run?
A: No signal enhancement
